In US3943154A, “Acylamides of beta-cyano-ethenesulfonyl substituted aminoarenes” (Sanitized Incorporated, priority 1973, dated 1976):
Converted amounts (≈) assume the structure as drawn.

What was measured:
[1] = system: Aspergillus niger ATCC 6257; test: agar incorporation test, antifungal activity; type: cell-based; conditions: Aspergillus niger, ATCC6257, 96 h, lowest concentration showing no growth or sporulation, four days at 28° C, read-out: Antifungal Activity A. niger, minimum inhibitory concentration
Procedure: The anti-fungal activity of the test compounds was determined employing the "agar incorporation" technique, utilizing spores from Aspergillus niger ATCC 6257 as a representative organism. Test solutions were prepared as described above in acetone or dimethylsulfoxide. A source of carbon agar such as Mycophil Agar was used. The agar was melted and cooled and placed in a constant temperature water bath at 45° C + 3° C. About 13-14 ml of the agar was then poured into a sterile Petri dish, the required amount of test solution to give the desired concentration immediately added thereto, and the dish rotated and swirled by hand to obtain a uniform mixture before the agar hardened.
The hardened plates were inoculated with the test organism by fishing spores from a 7-14 day old slant with the inocculating needle and spotting the spores on the plates, usually in several places. The inoculated plates were incubated for four days in an incubator maintained at 28° C +2° C and with a relative humidity of 95%+.
The lowest concentration of each test compound showing no growth or sporulation of the test organism was taken as the minimum inhibitory concentration and is reported in the following tabulation.
(§1) The button assay and agar incorporation tests were also utilized to determine the corresponding inhibitory concentrations of various control materials, viz., the following well known commercial antimicrobials and fungicides: hexachlorophene, tribromosalicylanilide, trichlorocarbanilide,Captan (N-(trichloromethylthio)4cyclohexene-1,2-dicarboximide) and Zineb (zinc ethylenebis[dithiocarbamate]). The minimum inhibitory concentration of each of the various control materials against the respective organisms is indicated in Table IV below: […]

[2] = system: Bacillus subtilis ATCC 9525; test: button assay, antibacterial activity; type: cell-based; conditions: Bacillus subtilis, ATCC9525, lowest concentration showing a clear zone of inhibition, 24 hours at 37° C, read-out: Antibacterial Activity B.subtilis, minimum inhibitory concentration
Procedure: (§2) In the test program, the minimum inhibitory concentrations of the respective test compounds against various Gram positive and Gram negative bacteria were determined, employing the "button assay" method. The test organisms utilized were standard cultures of Staphylococcus aureus ATCC 6538 DR, a penicillin resistant Gram positive bacterium; Bacillus subtilis ATCC 9525, a spore-forming Gram positive bacillus; and Salmonella typhosa ATCC 6539, a Gram negative bacterium.
(§3) In the tests the respective compounds were dissolved in a suitable solvent, usually acetone or dimethylsulfoxide, to give solutions with known concentrations of active material. The highest concentration was ordinarily 1000 ppm (parts per million) [0.1%], and dilutions were made in suitable steps down to 1 ppm. Penicillin test buttons of filter paper having a diameter of 13 mm (socalled "Peniassay" buttons) were added to each solution within a test tube and left submerged for five minutes. They were then removed and left to dry on paper towels under sterile conditions. A laminar flow sterile cabinet equipped with ultraviolet lamps operating under positive air pressure was utilized for this purpose.
(§4) An 18-24 hour old nutrient broth culture (standard 1.5% nutrient agar) prepared in conventional manner from a slant and having passed through at least three consecutive daily transfers was used for inoculation. Melted and cooled sterile agar (45° C) was inoculated with the respective broth cultures by addition of 20 ml broth per liter of agar. The agar was then dispensed into Petri dishes (20 ml per plate) under sterile conditions and allowed to harden.
(§5) The test buttons were placed on the surface of the hardened agar and the plates incubated for 24 hours at 37° C. Where, on inspection, a clear zone of inhibition appeared around the button, inhibition of growth was presumed. Where growth touched the button there was no inhibition. For each of the test compounds, the lowest concentration showing a clear zone is reported as the inhibitory concentration in the following table.
as §1

[3] = system: Staphylococcus aureus ATCC 6538 DR; test: button assay, antibacterial activity; type: cell-based; conditions: Staphylococcus aureus, ATCC6538, 24 h, read-out: Antibacterial Activity S.aureus, minimum inhibitory concentration
Procedure: as §2, §3, §4
as §5, with “table. […]” for “table.”

[4] = system: Salmonella typhosa ATCC 6539; test: button assay, antibacterial activity; type: cell-based; conditions: Salmonella enterica, 24 h, read-out: Antibacterial Activity S.typhosa, minimum inhibitory concentration
Procedure: as §2
as §3, with “The” for “In the tests the respective compounds were dissolved in a suitable solvent, usually acetone or dimethylsulfoxide, to give solutions with known concentrations of active material. The”
as §4
as §5, with “table. […]” for “table.”

[5] = stability of the recovered product; type: physicochemical; conditions: recovered by filtration and drying at low temperature under vacuum
Procedure: 10.4 g (0.05 mol) of 2-cyanovinyl 4-aminophenyl sulfone is dissolved in 100 ml of acetone and the solution cooled to 0° C. […] of phosphorus trichloride dissolved in 20 ml of acetone is added dropwise with stirring. After about 40 minutes the reaction mixture is poured into ice water with vigorous stirring. The intermediate initially formed hydrolyzes easily upon the addition of water to form di-4-(2-cyanoethenesulfonyl)anilidophosphine oxide, which can be recovered by filtration and drying at low temperature under vacuum.

[6] = solubility of the product in solvents; type: physicochemical
Procedure: Naphthalene-2,6-disulfonyl chloride (6.2 g, 0.02 mol) is dissolved in 100 ml dimethylformamide; to the solution is added, in 2-3 portions over about a minute, a solution of 3-(4-aminobenzenesulfonyl)acrylonitrile in 50 ml dimethylformamide containing 6 ml triethylamine (8.4 g, 0.04 mol). The temperature rises to 35° C by the exothermic reaction. The reaction mixture is maintained at room temperature for 2 hours and filtered to separate triethylamine hydrochloride therefrom. Addition of chloroform to the filtrate precipitates the product which, after washing with ethanol/water and drying, is in the form of a slightly off-white powder having a melting point of 312° C. […] It is naphthalene-2,6-bis-sulfon-[4-(2-cyanoethenesulfonyl)anilide]: ##SPC42##

With N#CC=CS(=O)(=O)c1ccc(N[PH](=O)Nc2ccc(S(=O)(=O)C=CC#N)cc2)cc1 [Example 57, di-4-(2-cyanoethenesulfonyl)anilidophosphine oxide] the MIC [1] was 100 µg/mL (≈ 216 µM), the MIC [2] was 20 µg/mL (≈ 43.2 µM) and the MIC [3] was 20 µg/mL (≈ 43.2 µM). For the same compound, the MIC [4] was 20 µg/mL (≈ 43.2 µM) and the “stability of the product” value [5] was “somewhat unstable”.

N#CC=CS(=O)(=O)c1ccc(NS(=O)(=O)c2ccc3cc(S(=O)(=O)Nc4ccc(S(=O)(=O)C=CC#N)cc4)ccc3c2)cc1 [Example 37, naphthalene-2,6-bis-sulfon-[4-(2-cyanoethenesulfonyl)anilide]] showed an MIC [1] of 1000 µg/mL (≈ 1500 µM), an MIC [2] of 50 µg/mL (≈ 74.8 µM) and an MIC [3] of 20 µg/mL (≈ 29.9 µM). For the same compound, the MIC [4] was 20 µg/mL (≈ 29.9 µM), the “solubility in dimethylformamide and dimethylsulfoxide” value ([6]; dimethylformamide, dimethylsulfoxide) was “soluble” and the “solubility in ethanol, chloroform and acetone” value ([6]; ethanol, chloroform, acetone) was “almost insoluble”.

In the case of Cc1ccccc1S(=O)(=O)Nc1ccc(S(=O)(=O)C=CC#N)cc1 [Example 16, 3-[4-(2-METHYLBENZENESULFONAMIDO)BENZENESULFONYL]ACRYLONITRILE], the MIC [1] is reported as > 1000 µg/mL, the MIC [2] is reported as 20 µg/mL (≈ 55.2 µM) and the MIC [3] is reported as 20 µg/mL (≈ 55.2 µM). The MIC [4] was 20 µg/mL (≈ 55.2 µM).
